Data taken from US20020132223A1, “Methods for modulating activity of the FXR nuclear receptor” (City of Hope, priority 1999, published 2002).
“Also recorded” adds a separate entry of the source.

Assays:
[1] = molecular target: T1, RXR (GAL-L-RXR) (Homo sapiens, UniProt P19793); test: GAL4 chimera activation assay in CV-1 cells, UASG×4 reporter, GAL-L-RXR
T1 sequence (P19793 203-462): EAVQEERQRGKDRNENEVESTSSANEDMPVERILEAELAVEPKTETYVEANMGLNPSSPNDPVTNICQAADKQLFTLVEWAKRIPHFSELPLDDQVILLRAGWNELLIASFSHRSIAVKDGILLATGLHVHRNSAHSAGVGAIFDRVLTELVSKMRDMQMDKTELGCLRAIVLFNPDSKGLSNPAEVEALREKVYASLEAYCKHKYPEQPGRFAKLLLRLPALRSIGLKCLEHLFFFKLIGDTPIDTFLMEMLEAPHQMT
Text: CV-1 cells were transiently transfected with a UASG×4 reporter and expression vectors for β-galactosidase and either GAL-L-RXR or the GAL-L-RXRm LBD mutant.
Confirmation of the analytical procedure was achieved by testing FXR-RXR and FXR-RXRm dimers for activation by RXR and FXR ligands. […] This type of assay therefore can specifically discriminate between activation by RXR ligands and FXR ligands.

[2] = molecular target: T2, FXR-RXR heterodimers (Rattus norvegicus, UniProt Q62735); test: Transient transfection activation assay in CV-1 cells, EcRE×6 reporter, FXR + RXR; type: cell-based
T2 sequence (Q62735 1-469): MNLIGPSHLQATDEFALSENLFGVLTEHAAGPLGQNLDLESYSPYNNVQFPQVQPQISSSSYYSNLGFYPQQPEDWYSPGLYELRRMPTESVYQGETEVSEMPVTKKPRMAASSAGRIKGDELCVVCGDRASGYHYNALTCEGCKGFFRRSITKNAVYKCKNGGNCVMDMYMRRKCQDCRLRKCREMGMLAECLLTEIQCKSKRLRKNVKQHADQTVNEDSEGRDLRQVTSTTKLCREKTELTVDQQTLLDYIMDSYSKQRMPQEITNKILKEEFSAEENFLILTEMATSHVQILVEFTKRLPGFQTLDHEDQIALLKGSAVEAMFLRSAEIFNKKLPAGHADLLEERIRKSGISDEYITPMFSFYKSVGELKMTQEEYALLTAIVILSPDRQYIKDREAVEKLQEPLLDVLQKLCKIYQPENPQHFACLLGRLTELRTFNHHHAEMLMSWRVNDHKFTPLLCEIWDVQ
T2 sequence (P19793 1-462 partner): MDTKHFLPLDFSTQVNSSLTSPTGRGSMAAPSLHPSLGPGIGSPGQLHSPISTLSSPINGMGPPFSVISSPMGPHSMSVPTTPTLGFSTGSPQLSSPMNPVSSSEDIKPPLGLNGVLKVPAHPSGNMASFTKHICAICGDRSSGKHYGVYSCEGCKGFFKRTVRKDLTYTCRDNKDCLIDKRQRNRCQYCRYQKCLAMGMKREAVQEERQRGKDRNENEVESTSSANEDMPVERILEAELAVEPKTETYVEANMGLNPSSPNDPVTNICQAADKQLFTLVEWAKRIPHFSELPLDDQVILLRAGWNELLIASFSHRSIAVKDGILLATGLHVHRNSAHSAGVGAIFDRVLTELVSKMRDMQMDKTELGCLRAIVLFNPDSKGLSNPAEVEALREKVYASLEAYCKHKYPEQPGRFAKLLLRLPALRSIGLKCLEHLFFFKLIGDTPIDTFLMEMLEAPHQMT
Text: Suitable reporter gene constructs are well known to skilled workers in the fields of biochemistry and molecular biology. Reporter/receptor pairs used in the assay reported in FIG. 1 are listed in Table I. All transfections additionally contained CMV-βgal as an internal control. Suitable constructs for use in the these studies may conveniently be cloned into pCMV. pCMV contains the cytomegalovirus promoter/enhancer followed by a bacteriophage T7 promoter for transcription in vitro. Other vectors known in the art can be used in the methods of the present invention.
(§1) CV-1 cells for the activation assays were grown in Dulbecco's modified Eagle's medium supplemented with 10% resin charcoal-stripped fetal bovine serum, 50 U/ml penicillin G and 50 μg/ml streptomycin sulfate (DMEM-FBS) at 37° C. in 5% CO2. One day prior to transfection, cells were plated to 50-80% confluence using phenol red free DMEM-FBS.
The cells were transiently transfected by lipofection. Reporter constructs (300 ng/10^5 cells) and cytomegalovirus-driven expression vectors (20-50 ng/10^5 cells) were added, with CMV-β-gal (500 ng/10^5 cells) as an internal control. After 2 hours, the liposomes were removed and the cells were treated for approximately 45 hours with phenol red free DMEM-FBS containing the test bile acid and other compounds.
Any compound which is a candidate for activation of FXR may be tested by this method. […] After exposure to ligand, the cells were harvested and assayed for β-galactosidase activity (control) and activity of the specific reporter gene.
Activity of the reporter gene can be conveniently normalized to the internal control and the data plotted as fold activation relative to untreated cells.
(§2) A variety of commercially available bile acids (Sigma) were tested for their ability to activate known FXR-RXR (FIG. 9; left panel) and FXR-RXRm (FIG. 9, right panel).
as §1, with “cells” for “cells for the activation assays”, “Modified” for “modified”, “resin-charcoal stripped” for “resin charcoal-stripped”, “phenol-red” for “phenol red”

[3] = molecular target: T3, FXR (Rattus norvegicus, UniProt Q62735); test: Transient transfection assay, FXR + RXR with liver bile acid transporter; type: cell-based; settings: for EC50: with the liver bile acid transporter
T3 sequence (Q62735 1-469): T2 sequence (Q62735 1-469)
T3 sequence (P19793 1-462 partner): T2 sequence (P19793 1-462 partner)
Text: The liver and ileum express tissue-specific bile acid transport proteins for efficient uptake of these compounds. […] CV-1 cells therefore were co-transfected with a human liver bile acid transporter (accession L21893). Use of this transporter allows hydrophilic bile acid or bile acid-derived compounds or compounds, which due to their structural similarity to bile acid are transported by the transporter, to be tested for activation of the intracellular bile acid nuclear receptor. […] Any suitable non-specific transporter may also be used.
After transfection, cells were treated with 100 μM concentrations of the indicated bile acid.
In addition to the structure-activity studies, dose-response analyses were performed for some bile acid nuclear receptor ligands. For these analyses, shown in FIG. 11, CV-1 cells were transfected as above, with the liver bile acid transporter, and treated with the indicated varying concentrations of each bile acid.

[4] = molecular target: T4, FXR-RXR heterodimers (Rattus norvegicus, UniProt Q62735); test: In vitro coactivator recruitment assay (mobility shift), FXR + RXR, GST-GRIP1; type: biochemical
T4 sequence (Q62735 1-469): T2 sequence (Q62735 1-469)
T4 sequence (P19793 1-462 partner): T2 sequence (P19793 1-462 partner)
T4 sequence (Q61026 625-765 partner limits assumed): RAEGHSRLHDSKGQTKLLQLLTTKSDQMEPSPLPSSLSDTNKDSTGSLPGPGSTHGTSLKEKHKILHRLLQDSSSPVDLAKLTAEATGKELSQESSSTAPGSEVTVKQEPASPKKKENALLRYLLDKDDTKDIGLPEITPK
Protocol: In vitro coactivator recruitment assays were performed by adding the ligand to a mixture of the following components: FXR, 9-cis retinoic acid receptor, a coactivator, and a labeled FXR response element (probe). […] GRIP1 was expressed in bacteria and purified for these assays. The GST-GRIP1 construct, containing the three receptor interaction domains of mouse GRIP1 (Arg 625-Lys 765, accession U39060) fused to glutathione-S-transferase, was created for bacterial expression of the GRIP1 coactivator.
After addition of the putative ligand to the mixture of components describe above and mixing, the mixture is incubated under conditions.
GST-GRIP1 was expressed in E. coli and purified on glutathione-sepharose columns. […] Complexes were electrophoresed through a 5% polyacrylamide gel in 0.5×TBE (45 mM Tris base, 45 mM boric acid, 1 mM EDTA) at room temperature. Electrophoretic mobility indicated recruitment of coactivator.

[5] = tested on: RXRα; PPARα, γ and δ; VDR; T3Rβ; RAR; PXR; LXRα and CARβ; test: Activation of other receptors by CDCA (data not shown)
[6] = tested on: FXR derived from human, rat and mouse; test: Antagonism of CDCA activation of FXR in CV-1 cells; type: cell-based; settings: 50 μM CDCA, 20 μM azole compound
Protocol: The FXR receptor activation assays disclosed herein may be used not only to test compounds for activation of FXR as above, but also for compounds which antagonize FXR activation. […] See Example 7.
CV-1 cells were grown in DMEM supplemented with 10% resin-charcoal stripped fetal bovine serum, 50 U/ml penicillin G and 50 μg/ml streptomycin sulfate at 37° C. in 5% CO2. Cells were plated to 50-80% confluence one day prior to transfection using phenol red-free DMEM-FBS. The cells were transfected by lipofection using N-[1-(2,3-dioleoyloxy)propyl]-N,N,N-ammonium methyl sulfate according to manufacture's instructions (Boehringer Mannheim). The cells were transfected with a CMV expression vector containing the FXR indicated in FIG. 16 (none, −; human, hFXR; rat, rFXR; or mouse, mFXR) and RXR. The luciferase reporter construct contained the herpesvirus thymidine kinase promoter (−105/+51) linked to six copies of the response element hsp27 EcRE. […] After exposure to the agonist and candidate antagonist compounds, cells were harvested and assayed for luciferase and β-galactosidase activity. […] Therefore, clotrimazole, Compound A and Compound B were selected from the screen as FXR receptor antagonists.

[7] = molecular target: T5, FXR-RXRm (Rattus norvegicus, UniProt Q62735); test: Transient transfection activation assay in CV-1 cells, FXR + RXRm; type: cell-based; settings: 100 nM
T5 sequence (Q62735 1-469): T2 sequence (Q62735 1-469)
Protocol: as §2
as §1, with “cells” for “cells for the activation assays”, “Modified” for “modified”, “resin-charcoal stripped” for “resin charcoal-stripped”, “phenol-red” for “phenol red”

[8] = molecular target: T6, FXR + RXRm (Rattus norvegicus, UniProt Q62735); test: In vitro coactivator recruitment assay (mobility shift), FXR + RXRm, GST-GRIP1; type: biochemical
T6 sequence (Q62735 1-469): T2 sequence (Q62735 1-469)
T6 sequence (Q61026 625-765 partner): T4 sequence (Q61026 625-765 partner limits assumed)
Protocol: In vitro coactivator recruitment assays were performed by adding the ligand to a mixture of the following components: FXR, 9-cis retinoic acid receptor, a coactivator, and a labeled FXR response element (probe). A polyamino acid containing the receptor interaction domains of co-activator GRIP1 may be used as the coactivator, however any functional coactivator or coactivator complex is contemplated for use in this assay. GRIP1 was expressed in bacteria and purified for these assays. The GST-GRIP1 construct, containing the three receptor interaction domains of mouse GRIP1 (Arg 625-Lys 765, accession U39060) fused to glutathione-S-transferase, was created for bacterial expression of the GRIP1 coactivator. […] Response elements suitable for use in this assay may be any nucleic acid probe which is substantially homologous to the target DNA sequence of the bile acid nuclear receptor.
After addition of the putative ligand to the mixture of components describe above and mixing, the mixture is incubated under conditions. […] Techniques such as, for example, thin layer chromatography, high pressure liquid chromatography, size exclusion chromatography, sedimentation, immunoseparation techniques, or any other convenient method known in the art may be used.
To distinguish between binding through the FXR and RXR subunits, the coactivator recruitment assays were repeated substituting RXRm for RXR. […]

[9] = bile acids 100 μM, no bile acid transporter

SMILES: C[C@H](CCC(=O)O)[C@H]1CC[C@H]2[C@@H]3[C@H](O)C[C@@H]4C[C@H](O)CC[C@]4(C)[C@H]3CC[C@]12C (single isomer, unassigned) [peak Z, chenodeoxycholic acid]
- effect on RXR ([1]; HPLC fractions, 25 μg/ml): no effect

SMILES: C[C@H](CCC(=O)O)[C@H]1CC[C@H]2[C@@H]3C(=O)C[C@@H]4C[C@H](O)CC[C@]4(C)[C@H]3CC[C@]12C [7-ketolithocholic acid, 5β-cholanic acid-3α-ol-7-one]
- activity as FXR activator [2, 9]: activity intermediate between CDCA and UDCA

SMILES: C[C@H](CCC(=O)O)[C@H]1CC[C@H]2[C@@H]3[C@H](O)C[C@@H]4C[C@H](O)CC[C@]4(C)[C@H]3C[C@H](O)[C@]12C [CA, cholic acid]
- activation of FXR ([3]; 100 μM, coexpression of the liver bile acid transporter): 170 fold
- activity as FXR activator [2, 9]: inactive
- coactivator recruitment by FXR-RXR [4]: less effective

SMILES: C[C@H](CCC(=O)O)[C@H]1CC[C@H]2[C@@H]3[C@H](O)C[C@@H]4C[C@H](O)CC[C@]4(C)[C@H]3CC[C@]12C [CDCA, chenodeoxycholic acid]
- activation of other receptors [5]: failed to activate
- activation of GAL-L-RXR chimera [1]: did not activate

SMILES: FC(F)(F)c1cccc(C(c2ccccc2)(c2ccccc2)n2ccnc2)c1 [Compound A]
- antagonism of CDCA activation of FXR [6]: displayed antagonist properties; also recorded: significant but weak activity

SMILES: c1ccc(-c2cn(C(c3ccccc3)(c3ccccc3)c3ccccc3)cn2)cc1 [Compound B]
- antagonism of CDCA activation of FXR [6]: displayed antagonist properties; also recorded: demonstrate inhibition of FXR activation

SMILES: C[C@H](CCC(=O)O)[C@H]1CC[C@H]2[C@@H]3CC[C@@H]4C[C@H](O)CC[C@]4(C)[C@H]3C[C@H](O)[C@]12C [DCA, deoxycholic acid]
- EC50 [3]: ~50 µM

SMILES: COC(=O)/C=C(\C)CC/C=C(\C)CC[C@H]1OC1(C)C [JH III, juvenile hormone III]
- activity as FXR activator ([2]; 50 μM): far weaker activity relative to the most efficacious bile acids

SMILES: C[C@H](CCC(=O)O)[C@H]1CC[C@H]2[C@@H]3CC[C@@H]4C[C@H](O)CC[C@]4(C)[C@H]3CC[C@]12C [LCA, lithocholic acid]
- EC50 [3]: ~50 µM

SMILES: Cc1cc2c(cc1C1(c3ccc(C(=O)O)cn3)CC1)C(C)(C)CCC2(C)C [LG268]
- response of FXR-RXRm [7]: little or no response

SMILES: Clc1ccccc1C(c1ccccc1)(c1ccccc1)n1ccnc1 [clotrimazole]
- antagonism of CDCA activation of FXR [6]: strongest effect; also recorded: strongly active

SMILES: C[C@H](CCC(=O)NCC(=O)O)[C@H]1CC[C@H]2[C@@H]3CC[C@@H]4C[C@H](O)CC[C@]4(C)[C@H]3CC[C@]12C [glyco-LCA]
- coactivator recruitment by FXR-RXRm [8]: recruited coactivator

SMILES: C[C@H](CCC(=O)O)[C@H]1CC[C@H]2[C@@H]3[C@H](O)[C@H](O)[C@@H]4C[C@H](O)CC[C@]4(C)[C@H]3CC[C@]12C [hyocholic]
- activity as FXR activator [2, 9]: inactive

SMILES: CC(=O)N1CCN(c2ccc(OCC3COC(Cn4ccnc4)(c4ccc(Cl)cc4Cl)O3)cc2)CC1 (stereo not shown) [ketonazole]
- antagonism of CDCA activation of FXR [6]: inactive

SMILES: C[C@H](CCC(=O)O)[C@H]1CC[C@H]2[C@@H]3C[C@@H](O)[C@@H]4C[C@H](O)CC[C@]4(C)[C@H]3CC[C@]12C [murocholic acid]
- activity as FXR activator [2, 9]: inactive

SMILES: C[C@H](CCC(=O)O)[C@H]1CC[C@H]2[C@@H]3[C@H](O)[C@@H](O)[C@@H]4C[C@H](O)CC[C@]4(C)[C@H]3CC[C@]12C [α-muricholic acid]
- activity as FXR activator [2, 9]: inactive
